In patent US20230115274A1, “COMPOUNDS AND COMPOSITIONS FOR TREATING CONDITIONS ASSOCIATED WITH STING ACTIVITY” (IFM Due, Inc., priority 2019, published 2023):

Molecular target: T1, hSTING (Homo sapiens, UniProt Q86WV6, G230A/H232R/R293Q/R71H)
T1 construct: host or cells: THP1-Dual KO-IFNAR2 cells
Assay: STING reporter assay (luciferase) in THP1-Dual KO-IFNAR2 cells stimulated with 2′3′cGAMP
Assay type: cell-based
Settings: 2′3′cGAMP 15 μM, 24 h
Protocol: STING pathway activation by the compounds described herein was measured using THP1-Dual™ cells (KO-IFNAR2).
THP1-Dual™ KO-IFNAR2 Cells (obtained from invivogen) were maintained in RPMI, 10% FCS, 5 ml P/S, 2 mM L-glut, 10 mM Hepes, and 1 mM sodium pyruvate. Compounds were spotted in empty 384 well tissue culture plates (Greiner 781182) by Echo for a final concentration of 0.0017-100 μM. Cells were plated into the TC plates at […], 2×10E6 cells/mL. For activation with STING ligand, 2′3′cGAMP (MW 718.38, obtained from Invivogen), was prepared in Optimem media.
The following solutions were prepared for each 1×384 plate: • Solution A: 2 mL Optimem with one of the following stimuli: • […] • Solution B: 2 mL Optimem with 60 μL Lipofectamine 2000->Incubate 5 min at RT
2 mL of solution A and 2 ml Solution B was mixed and incubated for 20 min at room temperature (RT). 20 uL of transfection solution (A+B) was added on top of the plated cells, with a final 2′3′cGAMP concentration of 15 μM. The plates were then centrifuged immediately at 340 g for 1 minute, after which they were incubated at 37° C., 5% CO2, >98% humidity for 24 h. Luciferase reporter activity was then measured. EC50 values were calculated by using standard methods known in the art.
Luciferase reporter assay: 10 μL of supernatant from the assay was transferred to white 384-plate with flat bottom and squared wells. One pouch of QUANTI-Luc™ Plus was dissolved in 25 mL of water. 100 μL of QLC Stabilizer per 25 mL of QUANTI-Luc™ Plus solution was added. 50 μL of QUANTI-Luc™ Plus/QLC solution per well was then added. Luminescence was measured on a Platereader (e.g., Spectramax I3X (Molecular Devices GF3637001)).
Luciferase reporter activity was then measured. EC50 values were calculated by using standard methods known in the art.

T1 sequence (Q86WV6 whole entry R71H/G230A/H232R/R293Q): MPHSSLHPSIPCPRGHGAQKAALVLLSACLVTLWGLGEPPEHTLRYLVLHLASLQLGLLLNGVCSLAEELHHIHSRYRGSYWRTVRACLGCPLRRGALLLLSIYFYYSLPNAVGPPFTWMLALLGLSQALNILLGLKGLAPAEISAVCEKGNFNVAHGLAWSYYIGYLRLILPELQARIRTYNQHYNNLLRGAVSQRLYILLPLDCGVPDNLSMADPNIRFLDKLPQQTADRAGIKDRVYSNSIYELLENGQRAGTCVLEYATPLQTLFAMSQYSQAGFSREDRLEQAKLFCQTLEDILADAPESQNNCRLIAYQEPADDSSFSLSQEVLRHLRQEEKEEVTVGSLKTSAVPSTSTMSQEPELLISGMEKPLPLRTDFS

Row | Structure (SMILES) | EC50 (class symbols) | EC50 (numeric bounds)
1 | O=C(Nc1cnc(C2CCC(F)(F)CC2)c(Cl)c1)Nc1c[nH]c2cccnc12 [Compound 142, 1-(5-chloro-6-(4,4-difluorocyclohexyl)pyridin-3-yl)-3-(1H-pyrrolo[3,2-b]pyridin-3-yl)urea] | 200 to 1000 nM | 
2 | COc1ccc2[nH]cc(NC(=O)Nc3ccc(C4CCC(F)(F)CC4)c(C#N)c3)c2n1 [Compound 150, 1-(3-cyano-4-(4,4-difluorocyclohexyl)phenyl)-3-(5-methoxy-1H-pyrrolo[3,2-b]pyridin-3-yl)urea] | 200 to 1000 nM | 
3 | O=C(Nc1cnc(N2CCC(F)(F)CC2)c(Cl)c1)Nc1c[nH]c2cccnc12 [Compound 188, 1-(5-chloro-6-(4,4-difluoropiperidin-1-yl)pyridin-3-yl)-3-(1H-pyrrolo[3,2-b]pyridin-3-yl)urea] | 200 to 1000 nM | 
4 | O=C(Nc1cnc(N2CCCCC2)c(Cl)c1)Nc1c[nH]c2ncc(F)cc12 [Compound 196, 1-(5-chloro-6-(piperidin-1-yl)pyridin-3-yl)-3-(5-fluoro-1H-pyrrolo[2,3-b]pyridin-3-yl)urea] | 200 to 1000 nM | 
5 | COc1ccc2[nH]cc(NC(=O)Nc3ccc(C4CC(F)(F)C4)c(F)c3)c2n1 [Compound 238, 1-(4-(3,3-difluorocyclobutyl)-3-fluorophenyl)-3-(5-methoxy-1H-pyrrolo[3,2-b]pyridin-3-yl)urea] | 200 to 1000 nM | 
6 | O=C(Nc1cnc(N2CCC(F)(F)CC2)nc1)Nc1c[nH]c2ncc(F)cc12 [Compound 190, 1-(2-(4,4-difluoropiperidin-1-yl)pyrimidin-5-yl)-3-(5-fluoro-1H-pyrrolo[2,3-b]pyridin-3-yl)urea] | 200 to 1000 nM | 
7 | O=C(Nc1ccc(C2CCC(F)(F)CC2)nc1)Nc1c[nH]c2ccc(OCCC(F)(F)F)nc12 [Compound 204, 1-(6-(4,4-difluorocyclohexyl)pyridin-3-yl)-3-(5-(3,3,3-trifluoropropoxy)-1H-pyrrolo[3,2-b]pyridin-3-yl)urea] | 1000 to 5000 nM | 
8 | O=C(Nc1ccc(C2CCC(F)(F)CC2)nc1)Nc1cn(C2CCCNC2)c2ncc(F)cc12 (stereo not shown) [Compound 123, 1-(6-(4,4-difluorocyclohexyl)pyridin-3-yl)-3-(5-fluoro-1-(piperidin-3-yl)-1H-pyrrolo[2,3-b]pyridin-3-yl)urea] |  | > 30000 nM
9 | COc1cnc2[nH]cc(NC(=O)Nc3cnc(N4CCC(F)(F)CC4)c(C)c3)c2c1 [Compound 168, 1-(6-(4,4-difluoropiperidin-1-yl)-5-methylpyridin-3-yl)-3-(5-methoxy-1H-pyrrolo[2,3-b]pyridin-3-yl)urea] | 200 to 1000 nM | 
10 | Cc1cc(NC(=O)Nc2c[nH]c3ncc(F)cc23)cnc1N1CCC2(CC1)CC2 [Compound 192, 1-(5-fluoro-1H-pyrrolo[2,3-b]pyridin-3-yl)-3-(5-methyl-6-(6-azaspiro[2.5]octan-6-yl)pyridin-3-yl)urea] | 40 to 200 nM | 
11 | CC1(C)CN(c2ncc(NC(=O)Nc3c[nH]c4cccnc34)cc2Cl)CCO1 [Compound 241, 1-(5-chloro-6-(2,2-dimethylmorpholino)pyridin-3-yl)-3-(1H-pyrrolo[3,2-b]pyridin-3-yl)urea] | 5000 to 100000 nM | 
12 | O=C(Nc1ccc(N2CCC(F)(F)CC2)nc1)Nc1c[nH]c2ncc(F)cc12 [Compound 118, 1-(6-(4,4-difluoropiperidin-1-yl)pyridin-3-yl)-3-(5-fluoro-1H-pyrrolo[2,3-b]pyridin-3-yl)urea] | 200 to 1000 nM | 
13 | COc1cnc2[nH]cc(NC(=O)Nc3cnc(N4CCC(F)(F)CC4)c(F)c3)c2c1 [Compound 184, 1-(6-(4,4-difluoropiperidin-1-yl)-5-fluoropyridin-3-yl)-3-(5-methoxy-1H-pyrrolo[2,3-b]pyridin-3-yl)urea] | 200 to 1000 nM | 
14 | O=C(Nc1cnc(C2CCC(F)(F)CC2)c(CO)c1)Nc1c[nH]c2ncc(F)cc12 [Compound 158, 1-(6-(4,4-difluorocyclohexyl)-5-(hydroxymethyl)pyridin-3-yl)-3-(5-fluoro-1H-pyrrolo[2,3-b]pyridin-3-yl)urea] | 5000 to 100000 nM | 
15 | N#Cc1cc(NC(=O)Nc2c[nH]c3c(F)cncc23)ccc1C1CCC(F)(F)CC1 [Compound 149, 1-(3-cyano-4-(4,4-difluorocyclohexyl)phenyl)-3-(7-fluoro-1H-pyrrolo[3,2-c]pyridin-3-yl)urea] | 200 to 1000 nM | 

More lines, now with the values ahead:

Row | EC50 (class symbols) | EC50 (numeric bounds) | Structure (SMILES)
16 | 200 to 1000 nM |  | COc1ccc2[nH]cc(NC(=O)Nc3ccc(C4CCC(F)(F)CC4)nc3)c2n1 [Compound 213, 1-(6-(4,4-difluorocyclohexyl)pyridin-3-yl)-3-(5-methoxy-1H-pyrrolo[3,2-b]pyridin-3-yl)urea]
17 | 200 to 1000 nM |  | COCCOc1ccc2[nH]cc(NC(=O)Nc3cnc(N4CCC(F)(F)CC4)c(Cl)c3)c2n1 [Compound 218, 1-(5-chloro-6-(4,4-difluoropiperidin-1-yl)pyridin-3-yl)-3-(5-(2-methoxyethoxy)-1H-pyrrolo[3,2-b]pyridin-3-yl)urea]
18 | 5000 to 100000 nM |  | O=C(Nc1cnc(N2CCC(F)(F)CC2)c(CCO)c1)Nc1c[nH]c2ncc(F)cc12 [Compound 147, 1-(6-(4,4-difluoropiperidin-1-yl)-5-(2-hydroxyethyl)pyridin-3-yl)-3-(5-fluoro-1H-pyrrolo[2,3-b]pyridin-3-yl)urea]
19 |  | > 30000 nM | O=C(Nc1cnn(CC2CCC(F)(F)CC2)c1)Nc1c[nH]c2cccnc12 [Compound 206, 1-(1-((4,4-difluorocyclohexyl)methyl)-1H-pyrazol-4-yl)-3-(1H-pyrrolo[3,2-b]pyridin-3-yl)urea]
20 | 200 to 1000 nM |  | O=C(Nc1ccc(C2CCC(F)(F)CC2)nc1)Nc1c[nH]c2ncc(Cl)cc12 [Compound 108, 1-(5-chloro-1H-pyrrolo[2,3-b]pyridin-3-yl)-3-(6-(4,4-difluorocyclohexyl)pyridin-3-yl)urea]
21 | 200 to 1000 nM |  | COc1ccc2[nH]cc(NC(=O)Nc3cnc(N4CCC(F)(F)CC4)c(F)c3)c2n1 [Compound 187, 1-(6-(4,4-difluoropiperidin-1-yl)-5-fluoropyridin-3-yl)-3-(5-methoxy-1H-pyrrolo[3,2-b]pyridin-3-yl)urea]
22 | 1000 to 5000 nM |  | O=C(Nc1cc(Cl)c(N2CCC(F)(F)CC2)cn1)Nc1c[nH]c2cccnc12 [Compound 235, 1-(4-chloro-5-(4,4-difluoropiperidin-1-yl)pyridin-2-yl)-3-(1H-pyrrolo[3,2-b]pyridin-3-yl)urea]
23 | 200 to 1000 nM |  | COc1cnc2[nH]cc(NC(=O)Nc3cnc(N4CCC(F)(F)CC4)c(Cl)c3)c2c1 [Compound 181, 1-(5-chloro-6-(4,4-difluoropiperidin-1-yl)pyridin-3-yl)-3-(5-methoxy-1H-pyrrolo[2,3-b]pyridin-3-yl)urea]
24 | 5000 to 100000 nM |  | O=C(Nc1cnc(N2CCC(F)(F)CC2)c(Cl)c1)Nc1c[nH]c2cc(Br)cnc12 [Compound 240, 1-(6-bromo-1H-pyrrolo[3,2-b]pyridin-3-yl)-3-(5-chloro-6-(4,4-difluoropiperidin-1-yl)pyridin-3-yl)urea]
25 | 200 to 1000 nM |  | O=C(Nc1cnc(N2CCC(F)(F)CC2)cn1)Nc1c[nH]c2ncc(F)cc12 [Compound 191, 1-(5-(4,4-difluoropiperidin-1-yl)pyrazin-2-yl)-3-(5-fluoro-1H-pyrrolo[2,3-b]pyridin-3-yl)urea]
26 | 200 to 1000 nM |  | Cc1cc(NC(=O)Nc2c[nH]c3ncc(F)cc23)cnc1N1CC(F)(F)C1 [Compound 171, 1-(6-(3,3-difluoroazetidin-1-yl)-5-methylpyridin-3-yl)-3-(5-fluoro-1H-pyrrolo[2,3-b]pyridin-3-yl)urea]
27 |  | > 30000 nM | Cc1cc(NC(=O)Nc2c[nH]c3ncc(F)cc23)cnc1N1CCOCC1 [Compound 167, 1-(5-fluoro-1H-pyrrolo[2,3-b]pyridin-3-yl)-3-(5-methyl-6-morpholinopyridin-3-yl)urea]
28 | 200 to 1000 nM |  | COc1ccc2[nH]cc(NC(=O)Nc3cnc(C4CCC(F)(F)CC4)c(C#N)c3)c2n1 [Compound 140, 1-(5-cyano-6-(4,4-difluorocyclohexyl)pyridin-3-yl)-3-(5-methoxy-1H-pyrrolo[3,2-b]pyridin-3-yl)urea]
29 | 200 to 1000 nM |  | O=C(Nc1cnc(N2CCC(F)(F)CC2)c(Cl)c1)Nc1c[nH]c2ccc(OCC(F)(F)F)nc12 [Compound 208, 1-(5-chloro-6-(4,4-difluoropiperidin-1-yl)pyridin-3-yl)-3-(5-(2,2,2-trifluoroethoxy)-1H-pyrrolo[3,2-b]pyridin-3-yl)urea]
30 | 40 to 200 nM |  | O=C(Nc1cnc(N2CCC(F)(F)CC2)c(Cl)c1)Nc1c[nH]c2ccc(Br)nc12 [Compound 236, 1-(5-bromo-1H-pyrrolo[3,2-b]pyridin-3-yl)-3-(5-chloro-6-(4,4-difluoropiperidin-1-yl)pyridin-3-yl)urea]
31 | 200 to 1000 nM |  | COCCOc1ccc2[nH]cc(NC(=O)Nc3cnc(C4CCC(F)(F)CC4)c(Cl)c3)c2n1 [Compound 211, 1-(5-chloro-6-(4,4-difluorocyclohexyl)pyridin-3-yl)-3-(5-(2-methoxyethoxy)-1H-pyrrolo[3,2-b]pyridin-3-yl)urea]
